Reference: article PMC6089189, “Targeting inhibitors of apoptosis proteins suppresses medulloblastoma cell proliferation via G2/M phase arrest and attenuated neddylation of p21” (Cancer Medicine, 2018)
Residues, ends and D or L forms follow the SMILES beside them. *: point of attachment. Cbz = O=C(OCc1ccccc1)*

How the values were obtained:
Format in all cases: cell-based
[1] = test system: p21; assay: Immunoblotting of p21 protein in MB cells; settings: DAOY and D283MED
Description: (§1) Antibody against XIAP, cIAP2, p21, or p53 was purchased from Cell Signaling Technology (Danvers, MA, USA); antibody for detection of cIAP1, cIAP1/2, p27, p16, GAPDH, cyclin A, or cyclin B1 was purchased from Santa Cruz Biotechnology (Dallas, TX, USA); antibodies against CDK1 and CDK2 were bought from Millipore (Burlington, MA, USA) and Upstate Biotechnology, respectively. The blotting membrane was developed using enhanced chemiluminescence (ECL) substrate (Millipore), and analyzed by densitometry and Image J (National Institutes of Health, USA).
(§2) Figure 4 IAPs Inhibition Increases the Protein Levels of p21, which are Governed by Proteasomal Degradation. A, DAOY and D283MED cells were incubated with LBW242 (10 μmol/L) for 0‐360 min. Total cell lysates were collected at different time points and then subjected to immunoblotting. B, The protein levels of cIAP1 and p21 were quantitated, normalized by the levels of GAPDH, and shown in the curve graphs. C, MB cells were transfected with siRNAs against cIAP1 or cIAP2, and nontargeting (NT) siRNA, and protein levels of cIAP1, cIAP2, and p21 were detected by immunoblotting. D, MB cells were treated with MG‐132, CHX, and MNL4924 to verify p21 protein degradation. The levels of p21 were analyzed by immunoblotting

[2] = test system: DAOY cells; assay: MTT cell viability assay, DAOY
Experimental: (§3) This assay was carried out using thiazolyl blue tetrazolium bromide (MTT; Sigma), as described in previous studies.12 Cell viability was calculated using the formula: (OD of experimental well/OD of control well) × 100%.
(§4) Figure 1 High Levels of IAPs in MB Cells Correspond to Sensitivity to IAP Inhibitors LBW242 or LCL161. A, The levels of IAPs and p21 in MB cell lines DAOY, D283MED and normal controls HA‐h and BJ were determined by immunoblotting. Their levels in MB cells were quantitated, normalized by GAPDH, presented in a bar graph, and compared to those in HA‐h cells. B, DAOY, D283MED, HA‐h, and BJ cell lines were treated with LBW242 or LCL161 at different concentrations (0, 5, 10, 20, and 40 μmol/L) and DMSO (control) for 72 h. Cell viability was determined by MTT assay. Data are represented as mean ± SEM of three independent experiments (*P < 0.05, **P < 0.01, and ***P < 0.005)

[3] = test system: D283MED cells; assay: MTT cell viability assay, D283MED
Experimental: as §3, §4

[4] = test system: BJ cells (normal fibroblast cell line); assay: MTT cell viability assay, BJ; settings: for IC50: BJ, MTT; for effect on BJ cell proliferation: 30 μmol/L, 72 h
Experimental: as §3, §4

[5] = test system: HA‐h cells (human astrocyte‐hippocampal); assay: MTT cell viability assay, HA‐h; settings: for IC50: HA‐h, MTT; for effect on HA‐h cell proliferation: 30 μmol/L, 72 h
Experimental: as §3, §4

[6] = test system: DAOY cells; assay: Apoptosis by Annexin V/PI and FACS, DAOY; settings: Annexin V‐positive population by FACS
[7] = test system: D283MED cells; assay: Apoptosis by Annexin V/PI and FACS, D283MED; settings: Annexin V‐positive population by FACS
[8] = test system: DAOY cells; assay: Cell cycle analysis (PI, FACS), DAOY; settings: siRNA with DMSO control, vincristine or cisplatin, Fig. S2
Experimental: (§5) MB cells were harvested following treatment with reagents. Cells were fixed with 70% ethanol, and then stored at −20°C overnight. Subsequent to equilibrating to room temperature, the cells were permeabilized with PBS containing 0.5% Triton X‐100 and 0.05% RNAse followed by staining with 50 μg/mL propidium iodide (PI; Sigma) at 4°C for 30 minutes. Finally, DNA content was detected by fluorescence‐activated cell sorting (FACS; Beckman Coulter Epics XL, Brea, CA, USA), and data were analyzed by EXPO32 ADC software (Beckman‐Coulter, USA).
(§6) A, MB cells were treated with DMSO (control), vincristine (1.25 nmol/L for DAOY and 2.5 nmol/L for D283MED), or cisplatin (0.31 μmol/L for DAOY and 0.625 μmol/L for D283MED), or in combination with LCL161 (10 μmol/L) or LBW242 (10 μmol/L) for 72 h. Thereafter, cells were harvested and their DNA contents were analyzed by FACS. B, The proportion of each cell cycle compartment was shown in bar graphs.

[9] = test system: D283MED cells; assay: Cell cycle analysis (PI, FACS), D283MED; settings: siRNA with DMSO control, vincristine or cisplatin, Fig. S2
Experimental: as §5, §6

[10] = test system: MB cells (DAOY and D283MED); assay: MTT cell viability / proliferation, stated for MB cells together; settings: 30 μmol/L, 72 h
Experimental: as §3, §4

[11] = test system: CDK1, CDK2, cyclin A and cyclin B1; assay: Immunoblotting of G2/M transition‐related proteins in MB cells; settings: 72 h
Description: as §1, §6

[12] = test system: cIAP1; assay: Immunoblotting of IAPs in MB cells, time course; settings: 10 μmol/L, in 60 minutes, DAOY and D283MED
Description: as §1, §2

[13] = test system: ubiquitination of p21; assay: Immunoprecipitation of p21, ubiquitination (Ub‐HA); settings: MB cells, in the presence of MG‐132 for 6 hours
Experimental: (§7) To observe ubiquitination or neddylation of p21, anti‐p21 antibody (Cell Signaling Technology) and Meg‐Beads‐Protein G (TOOLs) were added into total cell lysates collected from MB cells after transfected with plasmid overexpressing ubiquitin‐hemagglutinin (HA; Addgene, Cambridge, MA, USA) or NEDD8‐HA (Addgene) and treated with MG‐132 for 6 hours. Thereafter, immunoprecipitates were analyzed by immunoblotting with anti‐HA antibody (Sigma).
(§8) Figure 6 IAP Antagonist LBW242 Attenuates p21‐Interacted cIAP1 Expression and Neddylation of p21. A, To examine the ubiquitination of p21, MB cells were transfected with the plasmid carrying ubiquitin (Ub)‐HA and then treated with LBW242 combined with MG‐132 for 6 h. Total cell lysates were used for immunoprecipitation of p21, and subsequently applied to immunoblotting for detection of Ub‐HA, cIAP1, and cIAP2. B, To detect the neddylation of p21, MB cells were transfected with the plasmid overexpressing NEDD8‐HA, treated with MG‐132 and LBW242, and then subjected to immunoprecipitation. C, To examine whether cIAP1 dominates neddylation of p21, MB cells were co‐transfected with cIAP1 siRNA and NEDD8‐HA overexpressed plasmid, treated with MG‐132 for 6 h, and then applied to immunoprecipitation. D, DAOY cells were treated with MG‐132 for 6 h, and stained by immunofluorescence with anti‐cIAP1, anti‐cIAP2, and anti‐p21 antibodies. […]

[14] = test system: neddylation of p21; assay: Immunoprecipitation of p21, neddylation (NEDD8‐HA); settings: MB cells, in the presence of MG‐132 for 6 hours
Experimental: as §7, §8

[15] = test system: p21 RNA; assay: RT‐PCR analysis of p21 RNA in MB cells; settings: DAOY and D283MED
Description: Total RNA was extracted using trizole reagent (Easypure Total RNA Reagent) and converted into cDNA product using iScript cDNA Synthesis Kit (BIO‐RAD, Hercules, CA, USA). The cDNA product was mixed with PCR Master Mix reagent (Promega, Madison, WI, USA) and PCR primers, and then subjected to 1% agarose gel electrophoresis. The target gene expression was normalized by GAPDH. Primer sequences for p21 are 5′‐[…]‐3′ (forward) and 5′‐GGGCTTCCTCTTGGA‐GAAGAT‐3′ (reverse); primer sequences for cIAP1 are 5′‐[…]‐3′ (forward) and 5′‐[…]‐3′ (reverse); primer sequences for cIAP2 are 5′‐[…]‐3′ (forward) and 5′‐CAAGTAGATGAGGGTAA‐CTGGC‐3′ (reverse); primer sequences for GAPDH are 5′‐TGAAGGTCGGAGTCA‐ACGGATTTGGT‐3′ (forward) and 5′‐[…]‐3′ (reverse).

[16] = cisplatin 72 h, with or without siRNA transfection
[17] = cisplatin alone or with IAP inhibitor (10 μmol/L)
[18] = Homo sapiens, vincristine alone or with IAP inhibitor (10 μmol/L)

Compound: C[C@@H]1C[C@@H]([C@H](O)CC2CC(=O)NC(=O)C2)C(=O)[C@@H](C)C1 [cycloheximide]
- p21 protein expression [1]: decreased p21 protein levels after 30 minutes

Compound: N.N.[Cl][Pt][Cl] [Cisplatin, cisplatin]
- IC50 [2, 16]: 740 ± 60 nM
- IC50 [2, 17]: 1800 ± 100 nM
- IC50 [3, 16]: > 2500 nM
- IC50 [3, 17]: 1200 ± 250 nM
- IC50 [4, 17]: > 5000 nM
- IC50 [5, 17]: > 5000 nM
- Apoptosis (%) [6]: 13.3 ± 2.4%
- Apoptosis (%) [7]: 55.3 ± 3.5%
- G2/M (proportion of cells) [8]: 16.70%
- G2/M (proportion of cells) [9]: 19.10%

Compound: CN[C@@H](C)C(=O)N[C@H](C(=O)N1CCC[C@H]1c1nc(C(=O)c2ccc(F)cc2)cs1)C1CCCCC1 [LCL161]
- effect on BJ cell proliferation [4]: only mildly slowed
- effect on HA‐h cell proliferation [5]: only mildly slowed
- Apoptosis (%) [6]: 17.2 ± 2.5%
- Apoptosis (%) [7]: 14.0 ± 0.4%
- inhibition at 30 µM ([10]; read-out: inhibition of proliferation activities): 50%
- protein levels of CDK1, CDK2, cyclin A and cyclin B1 [11]: decreased

Compound: CC[C@]1(O)C[C@H]2CN(CCc3c([nH]c4ccccc34)[C@@](C(=O)OC)(c3cc4c(cc3OC)N(C=O)[C@H]3[C@@](O)(C(=O)OC)[C@H](OC(C)=O)[C@]5(CC)C=CCN6CC[C@]43[C@@H]65)C2)C1 [Vincristine]
- IC50 ([2]; Homo sapiens, vincristine 72 h, with or without siRNA transfection): 3.47 ± 0.28 nM
- IC50 [2, 18]: 5.5 ± 0.61 nM
- IC50 ([3]; Homo sapiens, D283 Med, vincristine 72 h, with or without siRNA transfection): > 5 nM
- IC50 ([3]; Homo sapiens, D283 Med, vincristine alone or with IAP inhibitor (10 μmol/L)): 5.7 ± 0.47 nM
- IC50 ([4]; Homo sapiens, chemotherapeutic agent alone or with IAP inhibitor (10 μmol/L)): > 5 nM
- IC50 [5, 18]: > 20 nM
- Apoptosis (%) [6]: 6.0 ± 2.1%
- Apoptosis (%) [7]: 34.4 ± 2.4%
- G2/M (proportion of cells) [8]: 18.28%
- G2/M (proportion of cells) [9]: 21.20%

Compound: CC(C)C[C@@H](C=O)NC(=O)[C@H](CC(C)C)NC(=O)[C@H](CC(C)C)NC(=O)OCc1ccccc1 [MG‐132] (Cbz-Leu-Leu-Leu-aldehyde)
- p21 protein expression [1]: accumulated in a time‐dependent manner

Compound: CN[C@@H](C)C(=O)N[C@H](C(=O)N1CC[C@H]2CCN(CCc3ccccc3)C[C@H]21)C1CCCCC1 [LBW242]
- effect on BJ cell proliferation [4]: only mildly slowed
- effect on HA‐h cell proliferation [5]: only mildly slowed
- Apoptosis (%) [6]: 22.6 ± 1.2%
- Apoptosis (%) [7]: 20.1 ± 0.3%
- inhibition of proliferation activities [10]: 50%
- protein levels of CDK1, CDK2, cyclin A and cyclin B1 [11]: decreased
- p21 protein expression [1]: enhances p21 expression
- cIAP1 protein expression [12]: effectively inhibited cIAP1 rather than cIAP2 or XIAP expression
- ubiquitination of p21 [13]: no effect
- neddylation of p21 [14]: reduced neddylation of p21
- p21 transcriptional (RNA) levels [15]: does not affect p21 RNA levels

Compound: NS(=O)(=O)OC[C@@H]1C[C@@H](n2ccc3c(N[C@H]4CCc5ccccc54)ncnc32)C[C@@H]1O [MLN4924]
- p21 protein expression [1]: accumulated in a time‐dependent manner
